The source made the active and inactive calls.
How the values were obtained:
[1] = molecular target: Phospholipase A2 (Homo sapiens, UniProt P04054); assay type: functional;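 note: confirmatory dose-response counterscreen on phospholipase A2, testing hits that came from an ultra-high-throughput screen for ATG4B inhibitors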
[2] = molecular target: T1, Caspase-6 (Homo sapiens, UniProt P55212); assay: inhibition of CASP6 peptide cleavage – biochemical, VEID-R110 fluorescence, cherry-pick, dose response (AID 720632)
T1 sequence (P55212 whole entry): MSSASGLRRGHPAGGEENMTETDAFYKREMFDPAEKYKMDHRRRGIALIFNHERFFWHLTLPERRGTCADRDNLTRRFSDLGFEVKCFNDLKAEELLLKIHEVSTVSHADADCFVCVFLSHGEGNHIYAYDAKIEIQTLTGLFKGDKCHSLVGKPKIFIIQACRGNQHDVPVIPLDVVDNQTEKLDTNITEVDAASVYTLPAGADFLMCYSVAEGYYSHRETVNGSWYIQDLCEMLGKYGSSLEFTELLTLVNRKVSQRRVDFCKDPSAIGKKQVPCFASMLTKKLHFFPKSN

[3] = molecular target: T2, Caspase-7 (Homo sapiens, UniProt P55210); assay: caspase-7 enzyme inhibition, selectivity check – biochemical, DEVD-R110 fluorescence, cherry-pick, selectivity assay for caspase-6 inhibitor project, dose response (AID 743295); assay type: functional
T2 sequence (P55210 whole entry): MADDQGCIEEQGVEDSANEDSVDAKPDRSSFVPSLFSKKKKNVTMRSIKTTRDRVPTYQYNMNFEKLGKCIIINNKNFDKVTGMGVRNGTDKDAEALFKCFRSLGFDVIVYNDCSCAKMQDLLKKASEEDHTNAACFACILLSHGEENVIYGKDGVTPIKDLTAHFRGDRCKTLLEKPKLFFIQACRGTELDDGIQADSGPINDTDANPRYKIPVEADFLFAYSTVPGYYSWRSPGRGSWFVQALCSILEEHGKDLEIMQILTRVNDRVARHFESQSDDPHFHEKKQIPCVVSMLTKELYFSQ

[4] = molecular target: T3, Caspase-3 (Homo sapiens, UniProt P42574); assay: human caspase-3 protease activity blockade – biochemical, fluorescence, cherry-picked samples, selectivity assay for caspase-6 allosteric inhibitor project, dose response (AID 743291)
T3 sequence (P42574 whole entry): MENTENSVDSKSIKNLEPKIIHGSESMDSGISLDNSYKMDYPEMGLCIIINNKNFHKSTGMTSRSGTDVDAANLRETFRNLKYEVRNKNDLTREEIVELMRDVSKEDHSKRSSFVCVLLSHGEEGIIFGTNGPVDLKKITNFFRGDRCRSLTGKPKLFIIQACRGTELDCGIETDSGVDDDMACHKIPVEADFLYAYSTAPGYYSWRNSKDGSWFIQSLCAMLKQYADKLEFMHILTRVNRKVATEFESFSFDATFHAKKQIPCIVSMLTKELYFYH

[5] = NIH-3T3 fibroblast cytotoxicity, dose response, cytotoxicity control, cell-based, fluorescence, Alamar Blue, secondary assay (AID 2327); assay type: functional;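 note: NIH-3T3 mouse fibroblasts cultured with fluconazole at 8 µg/mL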
[6] = HEK-293T viability loss after treatment – luminescence, T-cell screen hits, cytotoxicity control for TCR NF-kB inhibitor project, dose response (AID 489026); assay type: functional, cell-based;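 note: cells exposed to compound about 14 hours before the viability readout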
[7] = Intein inhibitors as potential Tuberculosis drugs, a cytotoxicity screen. [Related pubchem assays (depositor defined):AID2221, AID2223, AID434968, AID435010, AID449749, AID449750, AID489010]; assay type: functional
[8] = molecular target: T4, Replicative DNA helicase DnaB (Mycobacterium tuberculosis, UniProt P9WMR3); assay: DnaB intein splicing inhibitors, dose response, biochemical, cell-free fluorescence (AID 449749); assay type: functional
T4 sequence (P9WMR3 whole entry): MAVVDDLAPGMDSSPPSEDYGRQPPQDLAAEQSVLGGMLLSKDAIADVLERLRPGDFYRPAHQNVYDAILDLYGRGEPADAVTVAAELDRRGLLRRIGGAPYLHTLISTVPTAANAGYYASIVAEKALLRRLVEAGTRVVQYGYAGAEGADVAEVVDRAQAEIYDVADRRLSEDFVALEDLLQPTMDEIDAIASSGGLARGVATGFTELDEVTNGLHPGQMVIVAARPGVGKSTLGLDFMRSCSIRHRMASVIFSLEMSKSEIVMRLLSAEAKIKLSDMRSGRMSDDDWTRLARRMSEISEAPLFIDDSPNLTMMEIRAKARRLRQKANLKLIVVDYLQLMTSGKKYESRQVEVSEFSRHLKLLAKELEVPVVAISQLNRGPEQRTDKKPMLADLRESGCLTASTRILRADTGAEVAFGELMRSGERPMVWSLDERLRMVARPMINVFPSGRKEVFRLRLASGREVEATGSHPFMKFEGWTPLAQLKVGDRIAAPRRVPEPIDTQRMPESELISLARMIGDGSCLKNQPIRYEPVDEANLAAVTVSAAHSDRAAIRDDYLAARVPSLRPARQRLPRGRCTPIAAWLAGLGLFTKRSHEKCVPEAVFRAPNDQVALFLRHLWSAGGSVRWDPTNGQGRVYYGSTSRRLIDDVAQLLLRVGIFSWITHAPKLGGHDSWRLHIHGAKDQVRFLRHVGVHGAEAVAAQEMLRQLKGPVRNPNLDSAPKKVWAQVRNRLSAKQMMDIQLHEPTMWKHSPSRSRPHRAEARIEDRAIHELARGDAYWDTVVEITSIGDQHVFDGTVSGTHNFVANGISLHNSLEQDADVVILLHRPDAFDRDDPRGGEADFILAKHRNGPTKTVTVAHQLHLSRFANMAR
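Throughout, for CC50: cells exposed to compound for 72 hours before luminescence readout.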

Chain of Phospholipase A2 (P04054 whole entry): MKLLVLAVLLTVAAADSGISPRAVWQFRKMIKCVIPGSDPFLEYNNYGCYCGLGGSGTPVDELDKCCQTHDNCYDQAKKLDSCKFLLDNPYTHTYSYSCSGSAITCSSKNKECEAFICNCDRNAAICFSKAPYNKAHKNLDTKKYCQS

| SMILES | IC50 [1] | AC50 [2] | AC50 [3] | AC50 [4] | EC50 [5] | IC50 [6] | CC50 [7] | AC50 [8] |
| --- | --- | --- | --- | --- | --- | --- | --- | --- |
| COc1ccc(NS(=O)(=O)c2ccc3c(c2)[C@H]2C=CC[C@H]2[C@@H](c2ccc(C(=O)O)cc2)N3)cc1 | 6.87 µM (active) | 4.43 µM (active) | > 70 µM (inactive) | 18.2 µM (active) | – | – | – | – |
| CCC(=O)NC(c1ccc(OC)cc1)c1cc(Cl)c2cccnc2c1O (stereo unspecified) | – | – | – | – | 12.6 µM (inconclusive) | – | – | – |
| Cn1nc(-c2ccccn2)nc2c(=O)n(C)c(=O)nc1-2 | > 80 µM (inactive) | 0.219 µM (active) | 0.371 µM (active) | 6.73 µM (active) | – | 4.26 µM (active) | > 40 µM (active) | 0.573 µM (active) |
| CCCCCCCCCCn1c2c(c(=N)c3c1CCC3)CCC2 | – | – | – | – | 26.1 µM (active) | 38.4 µM (inactive) | 8.51 µM (active) | 2.81 µM (active) |
